Results reported in patent US20060264460A1 (Wyeth, priority 2005, published 2006).

Each compound was assayed against T1, human Cot/Tpl2 kinase (Homo sapiens, UniProt P41279) (assay: Tpl2/Cot kinase assay: GST-MEK1 phosphorylation detected by ELISA (DELFIA Eu)). Details: 0.4 nM Tpl2, 35 nM GST-MEK1, 50 uM ATP, 1 h at 30° C.
T1 construct: human Cot/Tpl2 kinase construct encoding residues 30-398; 6His (N); made in house; host or cells: Sf9 insect cells, baculovirus system (BD Biosciences)
Format: biochemical
Summary of the method: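 Substrate phosphorylation (GST-MEK1 Ser217/221) quantified by DELFIA europium ELISA, yielding IC50 values. Reaction: 1 h at 30° C, pH 7.2 MOPS buffer, 50 uM ATP, 35 nM GST-MEK1, 0.4 nM monomeric His-Tpl2 purified from Sf9 cells, compounds at 1% final DMSO; stopped with EDTA.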

T1 sequence (P41279 30-398): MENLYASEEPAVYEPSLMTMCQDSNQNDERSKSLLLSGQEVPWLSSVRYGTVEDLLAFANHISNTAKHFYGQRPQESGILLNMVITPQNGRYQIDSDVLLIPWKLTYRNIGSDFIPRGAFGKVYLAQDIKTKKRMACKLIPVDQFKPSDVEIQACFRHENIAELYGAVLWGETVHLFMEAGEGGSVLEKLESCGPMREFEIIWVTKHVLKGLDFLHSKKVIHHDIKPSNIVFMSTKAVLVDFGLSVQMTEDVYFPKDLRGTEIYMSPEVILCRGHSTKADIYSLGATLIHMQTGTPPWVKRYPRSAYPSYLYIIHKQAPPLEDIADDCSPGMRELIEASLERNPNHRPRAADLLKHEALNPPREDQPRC

Structure (SMILES)	IC50 [nM]
N#Cc1cnc2c(Br)cc(NCc3csnn3)cc2c1Nc1ccc(F)c(Cl)c1 [Example 302, 8-Bromo-4-(3-chloro-4-fluoro-phenylamino)-6-[([1,2,3]thiadiazol-4-ylmethyl)-amino]-quinoline-3-carbonitrile]	21
Cn1ccnc1CNc1cc(C(F)(F)F)c2ncc(C#N)c(Nc3ccc(F)c(Cl)c3)c2c1 [Example 236, 4-[(3-chloro-4-fluorophenyl)amino]-6-{[(1-methyl-1H-imidazol-2-yl)methyl]amino}-8-(trifluoromethyl)quinoline-3-carbonitrile]	200
N#Cc1cnc2ccc(NCC(=O)O)cc2c1Nc1ccc(F)c(Cl)c1 [Example 175, 2-(4-(3-chloro-4-fluorophenylamino)-3-cyanoquinolin-6-ylamino)acetic acid]	310
CN(C)Cc1cc(NCCN2CCOCC2)cc2c(Nc3cccc(Br)c3)c(C#N)cnc12 [Example 134, 4-(3-bromophenylamino)-8-((dimethylamino)methyl)-6-(2-morpholinoethylamino)quinoline-3-carbonitrile]	> 40000
N#Cc1cnc2ccc(NCc3ccc(-n4ccnc4)cc3)cc2c1Nc1ccc(F)c(Cl)c1 [Example 12, 4-(3-Chloro-4-fluoro-phenylamino)-6-(4-imidazol-1-yl-benzylamino)-quinoline-3-carbonitrile]	1300
N#Cc1cnc2c(Br)cc(NCc3nn[nH]c3-c3ccccc3F)cc2c1Nc1ccc(F)c(Cl)c1 [Example 118, 8-bromo-4-[(3-chloro-4-fluorophenyl)amino]-6-({[5-(2-fluorophenyl)-1H-1,2,3-triazol-4-yl]methyl}amino)quinoline-3-carbonitrile]	110
N#Cc1ccc(OCC(=O)O)c(CNc2ccc3ncc(C#N)c(Nc4ccc(F)c(Cl)c4)c3c2)c1 [Example 44, (2-{[4-(3-Chloro-4-fluoro-phenylamino)-3-cyano-quinolin-6-ylamino]-methyl}-4-cyano-phenoxy)-acetic acid]	3300
CN(C)C(=O)c1cc(NCc2ccc(C#N)cc2)cc2c(Nc3ccc(F)c(Cl)c3)c(C#N)cnc12 [Example 86, 4-(3-chloro-4-fluorophenylamino)-3-cyano-6-(4-cyanobenzylamino)-N,N-dimethylquinoline-8-carboxamide]	1100
N#Cc1cnc2c(Br)cc(NCc3nc(-c4ccccc4)n[nH]3)cc2c1Nc1ccc(F)c(Cl)c1 [Example 290, 8-Bromo-4-(3-chloro-4-fluoro-phenylamino)-6-[(5-phenyl-2H-[1,2,4]triazol-3-ylmethyl)-amino]-quinoline-3-carbonitrile]	> 40000
N#Cc1cnc2c(Br)cc(NCc3cn(CCN4CCCCC4)nn3)cc2c1Nc1ccc(F)c(Cl)c1 [Example 296, 8-Bromo-4-(3-chloro-4-fluoro-phenylamino)-6-{[1-(2-piperidin-1-yl-ethyl)-1H-[1,2,3]triazol-4-ylmethyl]-amino}-quinoline-3-carbonitrile]	15
N#Cc1cnc2c(C(F)(F)F)cc(NCc3cccnc3)cc2c1Nc1ccc(F)c(Cl)c1 [Example 230, 4-[(3-chloro-4-fluorophenyl)amino]-6-[(pyridin-3-ylmethyl)amino]-8-(trifluoromethyl)quinoline-3-carbonitrile]	> 40000
N#Cc1cnc2ccc(NCc3cnc(S(=O)(=O)c4ccccc4)s3)cc2c1Nc1ccc(F)c(Cl)c1 [Example 245, 4-[(3-chloro-4-fluorophenyl)amino]-6-({[2-(phenylsulfonyl)-1,3-thiazol-5-yl]methyl}amino)quinoline-3-carbonitrile]	910
N#Cc1ccc(CNc2cc(C(F)(F)F)c3ncc(C#N)c(Nc4ccc(F)c(Cl)c4)c3c2)cc1 [Example 234, 4-[(3-chloro-4-fluorophenyl)amino]-6-[(4-cyanobenzyl)amino]-8-(trifluoromethyl)quinoline-3-carbonitrile]	15100
Cc1cc(N)cc2c(Nc3cccc(Br)c3)c(C#N)cnc12 [Example 125, 6-amino-4-(3-bromophenylamino)-8-methylquinoline-3-carbonitrile]	11000
Cn1cnc(CNc2cc(Cl)c3ncc(C#N)c(Nc4ccc(F)c(Cl)c4)c3c2)c1 [Example 201, 8-chloro-4-[(3-chloro-4-fluorophenyl)amino]-6-{[(1-methyl-1H-imidazol-4-yl)methyl]amino}quinoline-3-carbonitrile]	9.1
CN1CCN(S(=O)(=O)c2ccc(CNc3ccc4ncc(C#N)c(Nc5ccc(F)c(Cl)c5)c4c3)cc2)CC1 [Example 122, 6-(4-(4-methylpiperazin-1-ylsulfonyl)benzylamino)-4-(3-chloro-4-fluorophenylamino)quinoline-3-carbonitrile]	580

Same assay, conditions: Table 2; Tpl2/Cot kinase, GST-MEK1 substrate, 50 uM ATP

Structure (SMILES)	IC50 [nM]
COc1cc(NCc2cccnc2)cc2c(Nc3ccc(C)c(O)c3)c(C#N)cnc12 [Example 386]	> 40000
Cc1cc2ncc(C#N)c(Nc3ccc(F)c(Cl)c3)c2cc1N [Example 392]	> 40000
N#Cc1cnc2c(Br)cc(NCc3cnc4ccccn34)cc2c1Nc1ccc(F)c(Cl)c1 [Example 526]	280
N#Cc1cnc2c(Cl)cc(NCc3cn(-c4cc[n+]([O-])cc4)nn3)cc2c1Nc1ccc(F)c(Cl)c1 [Example 576]	16
Cn1cnc(CNc2cc(Cl)c3ncc(C#N)c(Nc4ccc(F)c(Cl)c4)c3c2)n1 [Example 478]	530
N#Cc1cnc2c(Cl)cc(NCc3cn(Cc4cccnc4)cn3)cc2c1Nc1ccc(F)c(Cl)c1 [Example 553]	0.7
N#Cc1cnc2c(Cl)cc(NCc3cn(-c4ccnc(N5CCCCC5)n4)nn3)cc2c1Nc1ccc(F)c(Cl)c1 [Example 578]	320
COCCOc1ccc(CNc2ccc3ncc(C#N)c(Nc4ccc(F)c(Cl)c4)c3c2)cc1Br [Example 371]	380
N#Cc1cnc2ccc(NCCN3CCOCC3)cc2c1Nc1ccc(F)c(Cl)c1 [Example 337]	1000
N#Cc1cnc2c(Br)cc(NCc3cn(CCOCCOCCO)nn3)cc2c1Nc1ccc(F)c(Cl)c1 [Example 573]	140
CN(C)C(=O)OCCCn1cc(CNc2cc(Cl)c3ncc(C#N)c(Nc4ccc(F)c(Cl)c4)c3c2)nn1 [Example 582]	16
CCN1CCC(Cn2cc(CNc3cc(Br)c4ncc(C#N)c(Nc5ccc(F)c(Cl)c5)c4c3)nn2)CC1 [Example 566]	40
CN(C)CCC(c1cccnc1)n1cc(CNc2cc(Br)c3ncc(C#N)c(Nc4ccc(F)c(Cl)c4)c3c2)nn1 (stereo not shown) [Example 587]	6.7
Cn1nnc(CNc2cc(Cl)c3ncc(C#N)c(Nc4ccc(F)c(Cl)c4)c3c2)n1 [Example 466]	230
N#Cc1cnc2c(O)cc(N)cc2c1Nc1ccc(F)c(Cl)c1 [Example 421]	10600
N#Cc1cnc2c(Br)cc(NCc3ccc(OC(F)(F)C(F)F)cc3)cc2c1Nc1ccc(F)c(Cl)c1 [Example 424]	> 40000

Same assay, conditions: Tpl2/Cot kinase, GST-MEK1 substrate, 50 uM ATP

Structure (SMILES)	IC50 [nM]
CCN1CCC(Cn2cc(CNc3cc(Br)c4ncc(C#N)c(Nc5ccc(F)c(Cl)c5)c4c3)nn2)CC1 [Example 735]	40
CC(=O)N1CCC(CNc2cc(Cl)c3ncc(C#N)c(Nc4ccc(F)c(Cl)c4)c3c2)CC1 [Example 866]	260
N#Cc1cnc2c(Cl)cc(NCc3cn(Cc4ccnc(C(F)(F)F)c4)nn3)cc2c1Nc1ccc(F)c(Cl)c1 [Example 883]	80
CC(C)N1CCC(CCn2cc(CNc3cc(Br)c4ncc(C#N)c(Nc5ccc(F)c(Cl)c5)c4c3)nn2)CC1 [Example 738]	57
CN1CCC(CCn2cc(CNc3cc(Cl)c4ncc(C#N)c(Nc5ccc(F)c(Cl)c5)c4c3)nn2)CC1 [Example 696]	1.7
CCN1CCC[C@H]1CNc1cc(Cl)c2ncc(C#N)c(Nc3ccc(F)c(Cl)c3)c2c1 [Example 809]	330
N#Cc1cnc2c(Br)cc(NCc3cn(CCOC(N)=O)nn3)cc2c1Nc1ccc(F)c(Cl)c1 [Example 833]	9
CN1CCCN(CCCn2cc(CNc3cc(Br)c4ncc(C#N)c(Nc5ccc(F)c(Cl)c5)c4c3)nn2)CC1 [Example 793]	70
Cc1cc(Cn2cc(CNc3cc(Cl)c4ncc(C#N)c(Nc5ccc(F)c(Cl)c5)c4c3)nn2)ccn1 [Example 837]	11
CC(=O)NCCCn1cc(CNc2cc(Cl)c3ncc(C#N)c(Nc4ccc(F)c(Cl)c4)c3c2)nn1 [Example 910]	0.7
N#Cc1cnc2c(Br)cc(NCc3cn(CCC4CCNCC4)nn3)cc2c1Nc1ccc(F)c(Cl)c1 [Example 691]	90

Same assay, conditions: Tpl2/Cot kinase, GST-MEK1 substrate, 50 uM ATP, 1 h at 30° C.; Table 2

Structure (SMILES)	IC50 [nM]
N#Cc1cnc2c(Cl)cc(NCc3cn(CC(O)c4ccncc4)nn3)cc2c1Nc1ccc(F)c(Cl)c1 (stereo not shown) [Example 1001]	19
N#Cc1cnc2c(Cl)cc(NCc3cn(CCN4CCCCCC4)nn3)cc2c1Nc1ccc(Oc2ccccc2)cc1 [Example 988]	> 3000
CN1CCCC1CCn1cc(CNc2cc(Cl)c3ncc(C#N)c(NC4CCC4)c3c2)nn1 (stereo not shown) [Example 951]	460
CCNC1CCC(n2cc(CNc3cc(Cl)c4ncc(C#N)c(Nc5ccc(F)c(Cl)c5)c4c3)nn2)CC1 (stereo not shown) [Example 1035]	36
N#Cc1cnc2c(Cl)cc(NC[C@H]3C[C@H](OCc4cccnc4)CO3)cc2c1Nc1ccc(F)c(Cl)c1 [Example 939]	> 3000
N#Cc1cnc2c(Cl)cc(NCc3cn(C4CCC(O)CC4)nn3)cc2c1Nc1ccc(F)c(Cl)c1 (stereo not shown) [Example 1041]	5.7
CN1CCCC1CCn1cc(CNc2cc(Cl)c3ncc(C#N)c(NC4CCOCC4)c3c2)nn1 (stereo not shown) [Example 952]	1130
N#Cc1cnc2c(Cl)cc(NCc3cncc(C4(O)CCNCC4)c3)cc2c1Nc1ccc(F)c(Cl)c1 [Example 1032]	> 3000
N#Cc1cnc2c(Cl)cc(NCc3cn(CCN4CCCCCC4)nn3)cc2c1NC1CCCC1 [Example 945]	630
